Data published in ChEMBL document CHEMBL4130359, “Indazole-based ligands for estrogen-related receptor α as potential anti-diabetic agents” (Eur J Med Chem, 2017).

How the values were obtained:
Rattus norvegicus [1] = assay: Toxicity in Zucker rat sub-chronic fa/fa prediabetic model assessed as increase in food consumption at 10 mg/kg, po qd during 10 days study; format: organism-based; settings: in vivo, 240 h
[2] = Terminal half life in Sprague-Dawley rat at 10 mg/kg administered via oral gavage by LC-MS analysis; format: ADME, organism-based; settings: in vivo, read-out: beta t1/2 (converted)
Rattus norvegicus [3] = assay: Effect on PCK1 gene expression in epididymal white adipose tissue of Zucker rat sub-chronic fa/fa prediabetic model at 10 mg/kg, po qd for 15 days by microarray analysis relative to control; format: functional
Rattus norvegicus [4] = assay: Effect on PIK3CD gene expression in epididymal white adipose tissue of Zucker rat sub-chronic fa/fa prediabetic model at 10 mg/kg, po qd for 15 days by microarray analysis relative to control; format: functional
Rattus norvegicus [5] = assay: Effect on HADHB gene expression in epididymal white adipose tissue of Zucker rat sub-chronic fa/fa prediabetic model at 10 mg/kg, po qd for 15 days by microarray analysis relative to control; format: functional
Rattus norvegicus [6] = assay: Effect on SFN gene expression in epididymal white adipose tissue of Zucker rat sub-chronic fa/fa prediabetic model at 10 mg/kg, po qd for 15 days by microarray analysis relative to control; format: functional
Rattus norvegicus [7] = assay: Toxicity in Zucker rat sub-chronic fa/fa prediabetic model assessed as epididymal white adipose tissue weight at 50 mg/kg, po qd for 31 days measured on day 32 (reference value: 13.9 +/- 0.6 g); format: organism-based; settings: in vivo, 744 h
Estrogen receptor beta = Estrogen receptor beta (Homo sapiens, UniProt Q92731); assay: Inhibition of fluormone ES2 binding to recombinant full length human ERbeta expressed in insect cells by fluorescence polarization assay
Rattus norvegicus [8] = assay: Effect on YWHAG gene expression in epididymal white adipose tissue of Zucker rat sub-chronic fa/fa prediabetic model at 10 mg/kg, po qd for 15 days by microarray analysis relative to control; format: functional
[9] = AUC (0 to 24 hrs) in CD-1 mouse at 20 mg/kg administered via oral gavage by LC-MS analysis; format: ADME, organism-based; design: dose 20 mg/kg, time < 24 hr, route oral; settings: in vivo
Rattus norvegicus [10] = assay: Effect on STAT3 gene expression in epididymal white adipose tissue of Zucker rat sub-chronic fa/fa prediabetic model at 10 mg/kg, po qd for 15 days by microarray analysis relative to control; format: functional
Rattus norvegicus [11] = assay: Effect on PGAM2 gene expression in epididymal white adipose tissue of Zucker rat sub-chronic fa/fa prediabetic model at 10 mg/kg, po qd for 15 days by microarray analysis relative to control; format: functional
[12] = biological target: Peroxisome proliferator-activated receptor alpha (Homo sapiens, UniProt Q07869); assay: Antagonist activity at recombinant GST-tagged human PPARalpha LBD assessed as inhibition of GW7647-induced fluorescein-labeled coactivator peptide recruitment preincubated with enzyme followed by coactivator addition by LanthaScreen TR-FRET assay
Rattus norvegicus [13] = assay: Effect on HLA-DRA gene expression in epididymal white adipose tissue of Zucker rat sub-chronic fa/fa prediabetic model at 10 mg/kg, po qd for 15 days by microarray analysis relative to control; format: functional
[14] = Cmax in […] at 15 mg/kg administered via oral gavage by LC-MS analysis; format: ADME, organism-based; design: dose 15 mg/kg, route oral; settings: in vivo
Rattus norvegicus [15] = assay: Effect on Ckmt1 gene expression in epididymal white adipose tissue of Zucker rat sub-chronic fa/fa prediabetic model at 10 mg/kg, po qd for 15 days by microarray analysis relative to control; format: functional
Rattus norvegicus [16] = assay: Toxicity in Zucker rat sub-chronic fa/fa prediabetic model assessed as serum ALT level at 10 mg/kg, po qd for 31 days measured on day 32 (reference value: 151 +/- 23 U/L); format: organism-based; settings: in vivo, 744 h
Rattus norvegicus [17] = assay: Effect on HLA-DMB gene expression in epididymal white adipose tissue of Zucker rat sub-chronic fa/fa prediabetic model at 10 mg/kg, po qd for 15 days by microarray analysis relative to control; format: functional
Rattus norvegicus [18] = assay: Effect on ECI2 gene expression in epididymal white adipose tissue of Zucker rat sub-chronic fa/fa prediabetic model at 10 mg/kg, po qd for 15 days by microarray analysis relative to control; format: functional
[19] = Drug uptake in fat tissue of Zucker rat sub-chronic fa/fa prediabetic model at 12.5 mg/kg, po qd for 11 days; format: ADME, organism-based, Adipose tissue; settings: read-out: Drug uptake
Rattus norvegicus [20] = assay: Toxicity in Zucker rat sub-chronic fa/fa prediabetic model assessed as food intake at 50 mg/kg, po qd for 29 days measured on day 1 to 29 during compound dosing (reference value: 969 +/- 18 g); format: organism-based; settings: in vivo, 696 h
Rattus norvegicus [21] = assay: Decrease in fed plasma glucose level in Zucker rat sub-chronic fa/fa prediabetic model at 10 mg/kg, po qd for 4 days measured on day 5 relative to control; format: functional; design: scale not given: the % may be the effect or the level left
[22] = Cmax in Sprague-Dawley rat at 10 mg/kg administered via oral gavage by LC-MS analysis; format: ADME, organism-based; design: dose 10 mg/kg, route oral; settings: in vivo
Rattus norvegicus [23] = format: functional, Zucker
[24] = AUC (0 to 24 hrs) in […] model at 3 mg/kg, po qd for 28 days measured on day 28 post last dose; format: ADME, organism-based; design: dose 3 mg/kg, time < 24 hr, route oral; settings: in vivo
[25] = biological target: Oxysterols receptor LXR-beta (Homo sapiens, UniProt P55055); assay: Antagonist activity at recombinant GST-tagged human LXRbeta LBD assessed as inhibition of TO901317-induced fluorescein-labeled coactivator peptide recruitment preincubated with enzyme followed by coactivator addition by LanthaScreen TR-FRET assay
Rattus norvegicus [26] = assay: Effect on ACOT4 gene expression in epididymal white adipose tissue of Zucker rat sub-chronic fa/fa prediabetic model at 10 mg/kg, po qd for 15 days by microarray analysis relative to control; format: functional
Rattus norvegicus [27] = assay: Toxicity in Zucker rat sub-chronic fa/fa prediabetic model assessed as serum creatinine level at 3 mg/kg, po qd for 31 days measured on day 32 (reference value: 0.71 +/- 0.07 mg/dl); format: organism-based; settings: in vivo, 744 h
Rattus norvegicus [28] = assay: Toxicity in Zucker rat sub-chronic fa/fa prediabetic model assessed as change in body weight at 1 mg/kg, po qd for 29 days measured on day 1 to 29 during compound dosing (reference value: 140 +/- 7 g); format: organism-based; settings: in vivo, 696 h
Rattus norvegicus [29] = assay: Toxicity in […] chronic ob/ob model assessed as serum creatinine level at 50 mg/kg, po qd for 31 days measured on day 32 (reference value: 0.55 +/- 0.018 mg/dl); format: organism-based; settings: in vivo, 744 h
Rattus norvegicus [30] = assay: Effect on MAOB gene expression in epididymal white adipose tissue of Zucker rat sub-chronic fa/fa prediabetic model at 10 mg/kg, po qd for 15 days by microarray analysis relative to control; format: functional
Rattus norvegicus [31] = assay: Toxicity in […] chronic ob/ob model assessed as body weight at 10 mg/kg, po qd for 28 days measured on day 28 post last dose (reference value: 47.3 +/- 1.06 g); format: organism-based; settings: in vivo, 672 h
[32] = Cmax in […] chronic ob/ob model at 3 mg/kg, po qd for 28 days measured on day 28 post last dose; format: ADME, organism-based; design: dose 3 mg/kg, route oral; settings: in vivo
Rattus norvegicus [33] = format: functional, Zucker; remark: listed apart in the source
Rattus norvegicus [34] = assay: Toxicity in Zucker rat sub-chronic fa/fa prediabetic model assessed as serum AST level at 3 mg/kg, po qd for 31 days measured on day 32 (reference value: 187 +/- 37 U/L); format: organism-based; settings: in vivo, 744 h

Chain of Peroxisome proliferator-activated receptor alpha (Q07869 whole entry, the tested form may be a part): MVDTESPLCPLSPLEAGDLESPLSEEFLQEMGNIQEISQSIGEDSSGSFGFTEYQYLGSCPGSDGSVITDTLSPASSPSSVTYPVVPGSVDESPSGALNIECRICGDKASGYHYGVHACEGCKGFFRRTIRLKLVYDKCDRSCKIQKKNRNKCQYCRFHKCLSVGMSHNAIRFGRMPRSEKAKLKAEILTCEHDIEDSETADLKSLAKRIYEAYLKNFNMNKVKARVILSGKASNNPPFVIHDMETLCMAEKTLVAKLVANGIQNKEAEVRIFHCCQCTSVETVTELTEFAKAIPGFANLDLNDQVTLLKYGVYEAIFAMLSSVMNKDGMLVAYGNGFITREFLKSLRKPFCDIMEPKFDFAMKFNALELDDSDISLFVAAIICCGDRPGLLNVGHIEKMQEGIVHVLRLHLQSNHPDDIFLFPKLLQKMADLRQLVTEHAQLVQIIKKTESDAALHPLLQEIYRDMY
Chain of Estrogen receptor beta (Q92731 whole entry): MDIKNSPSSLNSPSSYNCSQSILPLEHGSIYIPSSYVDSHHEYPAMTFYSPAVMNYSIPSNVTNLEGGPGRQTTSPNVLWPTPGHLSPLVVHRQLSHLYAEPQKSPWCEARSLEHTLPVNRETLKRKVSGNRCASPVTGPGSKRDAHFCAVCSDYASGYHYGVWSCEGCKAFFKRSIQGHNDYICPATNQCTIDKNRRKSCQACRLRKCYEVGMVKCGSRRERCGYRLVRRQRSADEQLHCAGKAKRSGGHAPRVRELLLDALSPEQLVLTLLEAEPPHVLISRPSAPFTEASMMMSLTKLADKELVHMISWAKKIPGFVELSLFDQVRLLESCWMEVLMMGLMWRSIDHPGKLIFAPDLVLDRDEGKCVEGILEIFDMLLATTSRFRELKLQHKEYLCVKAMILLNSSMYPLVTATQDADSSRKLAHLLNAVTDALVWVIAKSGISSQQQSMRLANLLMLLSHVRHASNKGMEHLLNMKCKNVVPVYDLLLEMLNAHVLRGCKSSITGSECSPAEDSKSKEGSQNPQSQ
Chain of Oxysterols receptor LXR-beta (P55055 whole entry, the tested form may be a part): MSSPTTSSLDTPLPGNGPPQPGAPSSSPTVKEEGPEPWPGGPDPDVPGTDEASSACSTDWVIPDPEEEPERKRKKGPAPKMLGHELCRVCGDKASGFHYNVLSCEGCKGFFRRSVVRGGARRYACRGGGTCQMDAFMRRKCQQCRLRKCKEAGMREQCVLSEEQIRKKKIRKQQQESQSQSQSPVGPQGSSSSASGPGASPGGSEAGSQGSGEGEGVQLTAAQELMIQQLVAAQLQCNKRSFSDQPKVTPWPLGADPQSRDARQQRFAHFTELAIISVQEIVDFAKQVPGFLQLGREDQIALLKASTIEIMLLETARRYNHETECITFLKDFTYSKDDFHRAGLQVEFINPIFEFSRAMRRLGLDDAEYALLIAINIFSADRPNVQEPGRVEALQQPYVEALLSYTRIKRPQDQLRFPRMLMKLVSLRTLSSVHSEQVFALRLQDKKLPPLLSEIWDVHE

SMILES: CN1CC[C@@H](N2C(=O)S/C(=C\c3ccc4c(cnn4Cc4ccc(Cl)cc4C(F)(F)F)c3)C2=O)[C@H](F)C1
- Activity (Rattus norvegicus [1]): Non-Toxic
- half-life [2]: 4.7 h
- fold change (FC) (Rattus norvegicus [3]): 1.391
- fold change (FC) (Rattus norvegicus [4]): -1.312
- fold change (FC) (Rattus norvegicus [5]): 1.349
- fold change (FC) (Rattus norvegicus [6]): -1.468
- Activity (Rattus norvegicus [7]): 19.3 g
- IC50 (Estrogen receptor beta): > 10 µM
- fold change (FC) (Rattus norvegicus [8]): 1.255
- AUC(0-t) at 24 h [9]: 14600 ng·h/mL
- fold change (FC) (Rattus norvegicus [10]): -1.405
- fold change (FC) (Rattus norvegicus [11]): 1.396
- IC50 [12]: > 10 µM
- fold change (FC) (Rattus norvegicus [13]): -1.201
- Cmax [14]: 4020 ng/mL
- fold change (FC) (Rattus norvegicus [15]): -1.374
- Activity (Rattus norvegicus [16]): 122 U/L
- fold change (FC) (Rattus norvegicus [17]): -1.288
- fold change (FC) (Rattus norvegicus [18]): 1.453
- concentration at 264 h [19]: 58100 ng/g
- Activity (Rattus norvegicus [20]): 1049 g
- Activity (Rattus norvegicus [21]): -32%
- Cmax [22]: 683 ng/mL
- Activity (Rattus norvegicus [23]): 56958 mg·min/dL
- AUC at 24 h [24]: 2150 ng·h/mL
- IC50 [25]: > 10 µM
- fold change (FC) (Rattus norvegicus [26]): 2.122
- Activity (Rattus norvegicus [27]): 0.56 mg/dL
- Activity (Rattus norvegicus [28]): 142 g
- Activity (Rattus norvegicus [29]): 0.43 mg/dL
- fold change (FC) (Rattus norvegicus [30]): -1.452
- Activity (Rattus norvegicus [31]): 46.2 g
- Cmax [32]: 223 ng/mL
- Activity (Rattus norvegicus [33]): 331.3 mg/dL
- Activity (Rattus norvegicus [34]): 111 U/L
